# Laboratory results as given in ChEMBL document CHEMBL4765227, “Hit to lead optimization of a series of N-[4-(1,3-benzothiazol-2-yl)phenyl]acetamides as monoacylglycerol lipase inhibitors with potential anticancer activity” (Eur J Med Chem, 2016).
# pIC50: −log10 of the molar value.
# Columns and labels:
# 786-0 [1] = assay: Growth inhibition of human 786-0 cells at 10 uM incubated for 48 hrs by sulforhodamine B assay relative to control; assay type: functional; settings: read-out: GI
# CAKI-1 = assay: Growth inhibition of human CAKI-1 cells at 10 uM incubated for 48 hrs by sulforhodamine B assay relative to control; assay type: functional; settings: read-out: GI
# Monoglyceride lipase = target: T1, Monoglyceride lipase (Homo sapiens, UniProt Q99685); assay: Inhibition of human MAGL using 4-Nitrophenylacetate as substrate
# T1 sequence (Q99685 whole entry): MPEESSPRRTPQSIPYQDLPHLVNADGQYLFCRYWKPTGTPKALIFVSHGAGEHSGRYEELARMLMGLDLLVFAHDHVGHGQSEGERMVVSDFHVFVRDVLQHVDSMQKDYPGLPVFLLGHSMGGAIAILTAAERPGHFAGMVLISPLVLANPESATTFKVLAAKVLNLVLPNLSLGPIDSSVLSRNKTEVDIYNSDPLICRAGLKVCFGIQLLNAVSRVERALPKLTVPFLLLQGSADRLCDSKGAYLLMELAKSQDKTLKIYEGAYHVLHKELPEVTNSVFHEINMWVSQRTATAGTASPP
# OVCAR-3 = assay: Growth inhibition of human OVCAR-3 cells at 10 uM incubated for 48 hrs by sulforhodamine B assay relative to control; assay type: functional; settings: read-out: GI
# SK-MEL-2 = assay: Growth inhibition of human SK-MEL-2 cells at 10 uM incubated for 48 hrs by sulforhodamine B assay relative to control; assay type: functional; settings: read-out: GI
# A498 = assay: Growth inhibition of human A498 cells at 10 uM incubated for 48 hrs by sulforhodamine B assay relative to control; assay type: functional; settings: read-out: GI
# K562 = assay: Growth inhibition of human K562 cells at 10 uM incubated for 48 hrs by sulforhodamine B assay relative to control; assay type: functional; settings: read-out: GI
# MCF7 = assay: Growth inhibition of human MCF7 cells at 10 uM incubated for 48 hrs by sulforhodamine B assay relative to control; assay type: functional; settings: read-out: GI
# SK-MEL-28 = assay: Growth inhibition of human SK-MEL-28 cells at 10 uM incubated for 48 hrs by sulforhodamine B assay relative to control; assay type: functional; settings: read-out: GI
# BT-549 [2] = assay: Growth inhibition of human BT-549 cells at 10 uM incubated for 48 hrs by sulforhodamine B assay relative to control; assay type: functional; settings: read-out: GI
# IGROV-1 = assay: Growth inhibition of human IGROV-1 cells at 10 uM incubated for 48 hrs by sulforhodamine B assay relative to control; assay type: functional; settings: read-out: GI
# MOLT-4 = assay: Growth inhibition of human MOLT-4 cells at 10 uM incubated for 48 hrs by sulforhodamine B assay relative to control; assay type: functional; settings: read-out: GI
# NCI/ADR-RES [3] = assay: Growth inhibition of human NCI/ADR-RES cells at 10 uM incubated for 48 hrs by sulforhodamine B assay relative to control; assay type: functional; settings: read-out: GI
# Malme-3M [4] = assay: Growth inhibition of human Malme-3M cells at 10 uM incubated for 48 hrs by sulforhodamine B assay relative to control; assay type: functional; settings: read-out: GI
# EKVX = assay: Growth inhibition of human EKVX cells at 10 uM incubated for 48 hrs by sulforhodamine B assay relative to control; assay type: functional; settings: read-out: GI
# SNB-75 = assay: Growth inhibition of human SNB-75 cells at 10 uM incubated for 48 hrs by sulforhodamine B assay relative to control; assay type: functional; settings: read-out: GI
# HOP-62 = assay: Growth inhibition of human HOP-62 cells at 10 uM incubated for 48 hrs by sulforhodamine B assay relative to control; assay type: functional; settings: read-out: GI
# T47D = assay: Growth inhibition of human T47D cells incubated for 48 hrs by sulforhodamine B assay; assay type: functional
# COLO 205 = assay: Growth inhibition of human COLO 205 cells incubated for 48 hrs by sulforhodamine B assay; assay type: functional
# BT-549 [5] = assay: Growth inhibition of human BT-549 cells incubated for 48 hrs by sulforhodamine B assay; assay type: functional
# PC-3 = assay: Growth inhibition of human PC-3 cells incubated for 48 hrs by sulforhodamine B assay; assay type: functional
# 786-0 [6] = assay: Growth inhibition of human 786-0 cells incubated for 48 hrs by sulforhodamine B assay; assay type: functional
# NCI-H322M = assay: Growth inhibition of human NCI-H322M cells incubated for 48 hrs by sulforhodamine B assay; assay type: functional
# NCI/ADR-RES [7] = assay: Growth inhibition of human NCI/ADR-RES cells incubated for 48 hrs by sulforhodamine B assay; assay type: functional
# UACC-62 = assay: Growth inhibition of human UACC-62 cells incubated for 48 hrs by sulforhodamine B assay; assay type: functional
# SNB-19 = assay: Growth inhibition of human SNB-19 cells incubated for 48 hrs by sulforhodamine B assay; assay type: functional
# SR = assay: Growth inhibition of human SR cells incubated for 48 hrs by sulforhodamine B assay; assay type: functional
# Malme-3M [8] = assay: Growth inhibition of human Malme-3M cells incubated for 48 hrs by sulforhodamine B assay; assay type: functional
# SF-539 = assay: Growth inhibition of human SF-539 cells incubated for 48 hrs by sulforhodamine B assay; assay type: functional
# HT-29 = assay: Growth inhibition of human HT-29 cells incubated for 48 hrs by sulforhodamine B assay; assay type: functional
# ACHN = assay: Growth inhibition of human ACHN cells incubated for 48 hrs by sulforhodamine B assay; assay type: functional
# HOP-92 = assay: Growth inhibition of human HOP-92 cells incubated for 48 hrs by sulforhodamine B assay; assay type: functional
# RPMI-8226 = assay: Growth inhibition of human RPMI-8226 cells incubated for 48 hrs by sulforhodamine B assay; assay type: functional
# MDA-MB-231 = assay: Growth inhibition of human MDA-MB-231 cells incubated for 48 hrs by sulforhodamine B assay; assay type: functional
# U-251 = assay: Growth inhibition of human U-251 cells incubated for 48 hrs by sulforhodamine B assay; assay type: functional
# NCI-H23 = assay: Growth inhibition of human NCI-H23 cells incubated for 48 hrs by sulforhodamine B assay; assay type: functional
# [9] = read-out: LC50 (the source's name)
structure (smiles),measurement,setting,value
O=C(CN1C(=O)C(=O)c2ccccc21)Nc1ccc(-c2nc3ccccc3s2)cc1,inhibition of growth at 10 µM,786-0 [1],-6.97%
same,inhibition of growth at 10 µM,CAKI-1,-1.81%
same,pIC50,Monoglyceride lipase,< 4.00
same,inhibition of growth at 10 µM,OVCAR-3,10.9%
same,inhibition of growth at 10 µM,SK-MEL-2,0.87%
same,inhibition of growth at 10 µM,A498,10.7%
same,inhibition of growth at 10 µM,K562,21.3%
same,inhibition of growth at 10 µM,MCF7,44.5%
same,inhibition of growth at 10 µM,SK-MEL-28,-15.4%
same,inhibition of growth at 10 µM,BT-549 [2],-3.83%
same,inhibition of growth at 10 µM,IGROV-1,-0.62%
same,inhibition of growth at 10 µM,MOLT-4,47.5%
same,inhibition of growth at 10 µM,NCI/ADR-RES [3],-2.79%
same,inhibition of growth at 10 µM,Malme-3M [4],-2.34%
same,inhibition of growth at 10 µM,EKVX,14.2%
same,inhibition of growth at 10 µM,SNB-75,9.83%
same,inhibition of growth at 10 µM,HOP-62,-12.7%
O=C(CN(c1ccccc1)c1ccccc1)Nc1ccc(-c2nc3ccccc3s2)cc1,inhibition of growth at 10 µM,786-0 [1],-1.87%
same,inhibition of growth at 10 µM,CAKI-1,0.37%
same,pIC50,Monoglyceride lipase,< 4.00
same,inhibition of growth at 10 µM,OVCAR-3,-4.14%
same,inhibition of growth at 10 µM,SK-MEL-2,-0.42%
same,inhibition of growth at 10 µM,A498,6.91%
same,inhibition of growth at 10 µM,K562,3.89%
same,inhibition of growth at 10 µM,MCF7,52%
same,inhibition of growth at 10 µM,SK-MEL-28,-10.5%
same,inhibition of growth at 10 µM,BT-549 [2],-12.2%
same,inhibition of growth at 10 µM,IGROV-1,4.71%
same,inhibition of growth at 10 µM,MOLT-4,-4.25%
same,inhibition of growth at 10 µM,NCI/ADR-RES [3],-9.25%
same,inhibition of growth at 10 µM,Malme-3M [4],-3.98%
same,inhibition of growth at 10 µM,EKVX,-9.19%
same,inhibition of growth at 10 µM,SNB-75,2.08%
same,inhibition of growth at 10 µM,HOP-62,-5.28%
O=C(Cn1c2ccccc2c2ccccc21)Nc1ccc(-c2nc3ccccc3s2)cc1,inhibition of growth at 10 µM,786-0 [1],-1.17%
same,inhibition of growth at 10 µM,CAKI-1,1.03%
same,pIC50,Monoglyceride lipase,< 4.00
same,inhibition of growth at 10 µM,OVCAR-3,-4.48%
same,inhibition of growth at 10 µM,SK-MEL-2,-0.88%
same,inhibition of growth at 10 µM,A498,9.51%
same,inhibition of growth at 10 µM,K562,4.71%
same,inhibition of growth at 10 µM,MCF7,67.4%
same,inhibition of growth at 10 µM,SK-MEL-28,-7.99%
same,inhibition of growth at 10 µM,BT-549 [2],-5.6%
same,inhibition of growth at 10 µM,IGROV-1,13.4%
same,inhibition of growth at 10 µM,MOLT-4,5.92%
same,inhibition of growth at 10 µM,NCI/ADR-RES [3],-1.93%
same,inhibition of growth at 10 µM,Malme-3M [4],6.83%
same,inhibition of growth at 10 µM,EKVX,-3.36%
same,inhibition of growth at 10 µM,SNB-75,3.22%
same,inhibition of growth at 10 µM,HOP-62,-0.99%
O=C(CNc1ccc(Cl)cc1)Nc1ccc(-c2nc3ccccc3s2)cc1,inhibition of growth at 10 µM,786-0 [1],73%
same,inhibition of growth at 10 µM,CAKI-1,79.8%
same,GI50,T47D,1.86 µM
same,LC50 (concentration killing 50% of cells),T47D,> 100 µM
same,TGI,T47D,5.94 µM
same,GI50,COLO 205,2.08 µM
same,LC50,COLO 205,9.08 µM
same,TGI,COLO 205,4.35 µM
same,GI50,BT-549 [5],1.57 µM
same,LC50 (concentration killing 50% of cells),BT-549 [5],9.1 µM
same,TGI,BT-549 [5],3.78 µM
same,GI50,PC-3,2.01 µM
same,TGI,PC-3,5.13 µM
same,CC50,PC-3; [9],17.9 µM
same,GI50,786-0 [6],1.85 µM
same,LC50 (50% lethal concentration),786-0 [6],9 µM
same,TGI,786-0 [6],4.08 µM
same,inhibition of growth at 10 µM,OVCAR-3,71.1%
same,GI50,NCI-H322M,2 µM
same,LC50 (concentration killing 50% of cells),NCI-H322M,12.3 µM
same,TGI,NCI-H322M,4.65 µM
same,GI50,NCI/ADR-RES [7],3.03 µM
same,LC50,NCI/ADR-RES [7],> 100 µM
same,TGI,NCI/ADR-RES [7],8.5 µM
same,inhibition of growth at 10 µM,SK-MEL-2,21.5%
same,GI50,UACC-62,1.7 µM
same,LC50,UACC-62,19.4 µM
same,TGI,UACC-62,4.22 µM
same,GI50,SNB-19,2.81 µM
same,LC50,SNB-19,57.9 µM
same,TGI,SNB-19,10.2 µM
same,GI50,SR,1.62 µM
same,LC50,SR,> 100 µM
same,TGI,SR,5.76 µM
same,GI50,Malme-3M [8],1.98 µM
same,TGI,Malme-3M [8],4.22 µM
same,CC50,Malme-3M [8]; [9],8.99 µM
same,inhibition of growth at 10 µM,K562,88.1%
same,inhibition of growth at 10 µM,MCF7,88.5%
same,GI50,SF-539,1.86 µM
same,LC50,SF-539,7.14 µM
same,TGI,SF-539,3.65 µM
same,inhibition of growth at 10 µM,SK-MEL-28,0.54%
same,inhibition of growth at 10 µM,BT-549 [2],83.3%
same,inhibition of growth at 10 µM,IGROV-1,65.7%
same,GI50,HT-29,1.96 µM
same,LC50,HT-29,8.17 µM
same,TGI,HT-29,4 µM
same,inhibition of growth at 10 µM,MOLT-4,95.6%
same,inhibition of growth at 10 µM,NCI/ADR-RES [3],35.5%
same,inhibition of growth at 10 µM,Malme-3M [4],130%
same,GI50,ACHN,2.31 µM
same,LC50,ACHN,18.2 µM
same,TGI,ACHN,5.57 µM
same,GI50,HOP-92,2.4 µM
same,LC50 (concentration killing 50% of cells),HOP-92,37.8 µM
same,TGI,HOP-92,8.11 µM
same,GI50,RPMI-8226,2.52 µM
same,LC50,RPMI-8226,> 100 µM
same,TGI,RPMI-8226,6.73 µM
same,GI50,MDA-MB-231,2.86 µM
same,LC50 (concentration causing 50% cell kill),MDA-MB-231,> 100 µM
same,TGI,MDA-MB-231,10.3 µM
same,GI50,U-251,1.94 µM
same,LC50 (lethal concentration 50),U-251,7.84 µM
same,TGI,U-251,3.9 µM
same,inhibition of growth at 10 µM,SNB-75,39.9%
same,GI50,NCI-H23,2.04 µM
same,LC50 (lethal concentration 50%),NCI-H23,21.6 µM
same,TGI,NCI-H23,4.7 µM
same,inhibition of growth at 10 µM,HOP-62,-16.2%
